What was measured:
Cathepsin S = Cathepsin S (Homo sapiens, UniProt P25774); assay: Inhibition of human recombinant cathepsin S
Procathepsin L = Procathepsin L (Homo sapiens, UniProt P07711); assay: Inhibition of human recombinant cathepsin L
Cathepsin K = biological target: T1, Cathepsin K (Homo sapiens, UniProt P43235); assay: Inhibition of human recombinant cathepsin K
T1 sequence (P43235 whole entry): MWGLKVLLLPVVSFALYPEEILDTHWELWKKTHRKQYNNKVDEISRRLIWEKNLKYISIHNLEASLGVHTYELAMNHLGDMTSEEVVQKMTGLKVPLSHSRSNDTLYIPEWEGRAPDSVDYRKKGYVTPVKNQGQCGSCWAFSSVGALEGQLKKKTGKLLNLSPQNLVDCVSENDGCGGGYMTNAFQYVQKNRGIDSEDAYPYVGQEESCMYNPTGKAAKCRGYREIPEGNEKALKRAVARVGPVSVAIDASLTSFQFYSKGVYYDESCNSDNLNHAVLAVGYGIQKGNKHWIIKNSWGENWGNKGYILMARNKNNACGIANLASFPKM

Cathepsin B = Cathepsin B (Homo sapiens, UniProt P07858); assay: Inhibition of human liver cathepsin B
Prolyl endopeptidase = Prolyl endopeptidase (Sus scrofa, UniProt P23687)
[1] = Inhibition of HDAC
Coagulation factor X = Coagulation factor X (Homo sapiens, UniProt P00742); assay: Inhibition of human factor 10a
Trypsin = Trypsin (Homo sapiens, UniProt P07477+P07478+P35030); assay: Inhibition of human trypsin; format: protein assay
[2] = Inhibition of human beta-tryptase
[3] = Inhibition of bovine trypsin; parameters: species or system Bos taurus
[4] = Selectivity for rat FAAH over triacylglycerol hydrolase
[5] = biological target: T2, Fatty-acid amide hydrolase 1 (Rattus norvegicus, UniProt P97612)
T2 sequence (P97612 whole entry): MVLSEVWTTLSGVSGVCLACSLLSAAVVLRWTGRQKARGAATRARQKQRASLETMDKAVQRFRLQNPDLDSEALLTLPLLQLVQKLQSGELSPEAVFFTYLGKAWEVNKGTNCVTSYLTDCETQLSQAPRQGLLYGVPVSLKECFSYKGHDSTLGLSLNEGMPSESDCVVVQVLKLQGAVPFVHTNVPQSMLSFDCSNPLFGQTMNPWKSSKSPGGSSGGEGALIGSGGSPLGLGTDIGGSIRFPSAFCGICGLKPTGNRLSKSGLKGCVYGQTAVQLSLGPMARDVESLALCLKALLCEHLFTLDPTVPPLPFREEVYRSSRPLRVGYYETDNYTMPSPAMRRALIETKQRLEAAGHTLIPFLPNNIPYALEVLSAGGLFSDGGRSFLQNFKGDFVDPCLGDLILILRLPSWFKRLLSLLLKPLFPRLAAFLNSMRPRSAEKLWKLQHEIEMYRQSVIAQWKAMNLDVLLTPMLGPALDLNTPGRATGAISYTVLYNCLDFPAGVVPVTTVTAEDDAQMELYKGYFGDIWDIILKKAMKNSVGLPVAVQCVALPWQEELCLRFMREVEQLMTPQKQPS

Prothrombin = Prothrombin (Homo sapiens, UniProt P00734); assay: Inhibition of human alpha-thrombin

Procathepsin L, sequence (P07711 whole entry): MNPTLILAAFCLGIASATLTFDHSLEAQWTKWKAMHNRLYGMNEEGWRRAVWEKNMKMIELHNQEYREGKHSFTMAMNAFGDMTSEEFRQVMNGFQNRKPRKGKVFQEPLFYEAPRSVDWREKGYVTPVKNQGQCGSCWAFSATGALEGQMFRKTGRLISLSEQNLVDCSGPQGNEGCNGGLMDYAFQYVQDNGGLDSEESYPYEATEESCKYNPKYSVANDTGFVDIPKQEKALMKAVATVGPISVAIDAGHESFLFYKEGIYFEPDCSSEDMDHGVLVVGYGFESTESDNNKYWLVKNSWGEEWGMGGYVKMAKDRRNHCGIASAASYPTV
Cathepsin S, sequence (P25774 whole entry): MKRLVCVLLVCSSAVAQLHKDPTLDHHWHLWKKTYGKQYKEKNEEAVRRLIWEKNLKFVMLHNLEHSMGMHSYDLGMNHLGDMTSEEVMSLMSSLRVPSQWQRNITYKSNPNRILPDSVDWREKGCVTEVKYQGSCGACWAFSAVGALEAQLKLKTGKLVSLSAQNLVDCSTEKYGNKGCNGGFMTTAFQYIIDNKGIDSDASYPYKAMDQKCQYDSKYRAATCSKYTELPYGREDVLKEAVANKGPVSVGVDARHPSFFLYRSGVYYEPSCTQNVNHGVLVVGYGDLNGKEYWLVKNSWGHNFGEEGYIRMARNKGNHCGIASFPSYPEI
Prolyl endopeptidase, sequence (P23687 whole entry): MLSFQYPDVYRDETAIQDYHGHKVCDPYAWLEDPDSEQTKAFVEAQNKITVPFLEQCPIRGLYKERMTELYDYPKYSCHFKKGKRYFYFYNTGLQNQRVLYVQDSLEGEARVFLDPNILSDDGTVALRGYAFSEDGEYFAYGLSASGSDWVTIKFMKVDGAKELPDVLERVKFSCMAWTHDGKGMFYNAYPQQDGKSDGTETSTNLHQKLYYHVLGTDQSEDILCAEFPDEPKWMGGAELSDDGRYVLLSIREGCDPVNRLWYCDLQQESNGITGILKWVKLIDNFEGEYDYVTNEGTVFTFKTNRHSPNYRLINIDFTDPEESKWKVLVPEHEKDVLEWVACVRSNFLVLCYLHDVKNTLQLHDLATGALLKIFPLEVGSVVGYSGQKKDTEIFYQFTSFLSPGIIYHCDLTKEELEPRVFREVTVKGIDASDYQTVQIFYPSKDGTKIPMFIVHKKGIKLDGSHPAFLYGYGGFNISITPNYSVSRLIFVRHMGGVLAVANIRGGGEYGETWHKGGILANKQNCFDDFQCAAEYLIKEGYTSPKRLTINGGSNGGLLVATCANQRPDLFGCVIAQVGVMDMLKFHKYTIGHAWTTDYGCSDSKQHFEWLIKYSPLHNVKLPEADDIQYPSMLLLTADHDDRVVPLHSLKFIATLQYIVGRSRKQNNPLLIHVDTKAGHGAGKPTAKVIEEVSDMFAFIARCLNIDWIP
Coagulation factor X, sequence (P00742 41-179 limits assumed): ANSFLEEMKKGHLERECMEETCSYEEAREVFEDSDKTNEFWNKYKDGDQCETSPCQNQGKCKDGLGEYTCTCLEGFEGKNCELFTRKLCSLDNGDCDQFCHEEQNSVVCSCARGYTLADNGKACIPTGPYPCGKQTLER
Coagulation factor X, sequence (P00742 235-488 limits assumed): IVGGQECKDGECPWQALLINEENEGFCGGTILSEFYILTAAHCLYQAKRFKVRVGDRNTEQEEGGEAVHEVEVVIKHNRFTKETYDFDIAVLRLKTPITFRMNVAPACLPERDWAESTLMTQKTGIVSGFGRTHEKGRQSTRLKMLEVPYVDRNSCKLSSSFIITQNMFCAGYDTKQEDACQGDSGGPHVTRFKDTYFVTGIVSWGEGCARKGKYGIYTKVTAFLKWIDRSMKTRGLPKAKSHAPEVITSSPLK

## CCCC[C@H](NC(=O)OCC(C)C)C(=O)c1nnc(-c2ccco2)o1
Cathepsin S
  Ki: 380 nM
Procathepsin L
  Ki: 14000 nM
Cathepsin K
  Ki: 500 nM
Cathepsin B
  Ki: 16000 nM

## O=C(N[C@@H](CCc1ccccc1)C(=O)c1ncco1)[C@@H](CC(=O)N1CCOCC1)CC1CCCCC1
Cathepsin S
  Ki: < 100 nM

## O=C(c1ccccn1)[C@@H]1CCCN1C(=O)[C@@H]1CCCN1CCCc1ccccc1
Prolyl endopeptidase
  IC50: 6.9 nM

## CC(C)C[C@H](NC(=O)C1CCNCC1)C(=O)N[C@@H](CCc1ccccc1)C(=O)c1nc2cc(S(N)(=O)=O)ccc2o1
Cathepsin S
  Ki: 40 nM
Procathepsin L
  Ki: 220 nM
Cathepsin K
  Ki: 40 nM
Cathepsin B
  Ki: 90 nM

## O=C(CCCCCCOc1cccc(-c2ccccc2)c1)c1ncco1
[1]
  IC50: 620 nM

## O=C(CCCCCCOc1ccc(-c2ccccc2)cc1)c1nc2ccccc2o1
[1]
  IC50: > 50000 nM

## CC(C)(C)CC(=O)N[C@H](Cc1ccccc1)C(=O)N1CCC[C@H]1C(=O)N[C@@H](CCCNC(=N)N)C(=O)c1nc2ccccc2o1.O=C(O)C(F)(F)F
Coagulation factor X
  IC50: 110 nM
Trypsin
  IC50: 2.3 nM

## CC(=O)N1C[C@H](O)C[C@@H]1C(=O)N[C@@H](CCCNC(=N)N)C(=O)c1nc2ccccc2s1
[2]
  Ki: 380 nM

## CS(=O)(=O)N1CCC[C@H]1C(=O)N[C@@H](CCCNC(=N)N)C(=O)c1nc2ccccc2s1
[2]
  Ki: 33 nM
[3]
  Ki: 38 nM

## CCCCCCCCCCCC(=O)c1nc2ncccc2o1
[4]
  Selectivity ratio: 100
[5]
  Ki: 0.57 nM

## CC(C)C[C@H](NC(=O)C1CCNCC1)C(=O)N[C@@H](CCc1ccccc1)C(=O)c1nc2ccccc2o1
Procathepsin L
  Ki: 30 nM
Cathepsin K
  Ki: 9.5 nM
Cathepsin B
  Ki: 2100 nM

## CCCCCCCC/C=C\CCCCCCCC(=O)c1nnc(-c2ccccn2)o1
[4]
  Selectivity ratio: 5000

## O=C(CCCCCCC(=O)c1ncco1)Nc1cc2ccccc2[nH]1
[1]
  IC50: 90 nM

## CCCC[C@H](NC(=O)CCc1ccccc1)C(=O)c1nnc(-c2ccco2)o1
Cathepsin S
  Ki: 26000 nM
Procathepsin L
  Ki: 100000 nM
Cathepsin K
  Ki: 9600 nM
Cathepsin B
  Ki: 25000 nM

## CCC[C@H](NC(=O)[C@@H](CC(=O)N1CCOCC1)CC(C)(C)C)C(=O)c1nc2ccccc2o1
Cathepsin S
  Ki: < 100 nM

## NCCCCC(NC(=O)[C@H](Cc1ccccc1)NC(=O)[C@@H](Cc1ccccc1)NS(=O)(=O)Cc1ccccc1)C(=O)c1nc2ccccc2s1 (stereo partly drawn)
[2]
  Ki: 23 nM

## CN[C@H](Cc1ccccc1)C(=O)N1CCC[C@H]1C(=O)N[C@@H](CCCNC(=N)N)C(=O)c1ccccn1
[3]
  Ki: 73 nM

## CC(NC(=O)[C@H](CC(=O)N(C)C)NC(=O)[C@@H](NC(=O)CC(C)(C)C)C(C)(C)C)C(=O)c1nc2ccccc2s1 (stereo partly drawn)
Prolyl endopeptidase
  IC50: 9000 nM

## O=C(c1cncs1)[C@@H]1CCCN1C(=O)[C@@H]1CCCN1CCCc1ccccc1
Prolyl endopeptidase
  IC50: 1100 nM

## O=C(CCCCCCOc1ccc(-c2ccccc2)cc1)c1ccccn1
[1]
  IC50: > 50000 nM

## O=C(CCCCCCOc1ccc(-c2ccccc2)cc1)c1ncc[nH]1
[1]
  IC50: > 50000 nM

## O=C(CCCCCC(=O)c1ncco1)Nc1cccc(-c2ccccc2)c1
[1]
  IC50: 310 nM

## O=C(CCCCCCOc1ccc(-c2ccccc2)cc1)C1=NCCO1
[1]
  IC50: 1000 nM

## CC(=O)N1C[C@H](O)C[C@H]1C(=O)N[C@@H](CCCNC(=N)N)C(=O)c1nccs1
[2]
  Ki: 180 nM

## CCCC[C@H](NC(=O)[C@H](CS(=O)(=O)Cc1ccccc1)NC(=O)N1CCOCC1)C(=O)c1nnc(-c2ccccc2)o1
Cathepsin S
  Ki: < 100 nM

## O=C(c1ncc[nH]1)[C@@H]1CCCN1C(=O)[C@@H]1CCCN1CCCc1ccccc1
Prolyl endopeptidase
  IC50: 9 nM

## CC(C)C[C@H](NC(=O)C1CCNCC1)C(=O)N[C@@H](CCc1ccccc1)C(=O)c1nc2cc(C(C)(C)C)ccc2o1
Cathepsin S
  Ki: 30 nM
Procathepsin L
  Ki: 70 nM
Cathepsin K
  Ki: 8.5 nM
Cathepsin B
  Ki: 7000 nM

## CC(=O)N1CCC[C@@H]1C(=O)N[C@@H](CCCN=C(N)N)C(=O)c1nc2ccccc2s1
[2]
  Ki: 14000 nM

## N=C(N)NCCC[C@@H](NS(=O)(=O)Cc1ccccc1)C(=O)NCC(=O)N[C@@H](Cc1c[nH]c2ccccc12)C(=O)c1nccs1
Coagulation factor X
  IC50: 39 nM
Trypsin
  IC50: > 180000 nM

## CCOC(=O)c1csc(C(=O)[C@H](CCCNC(=N)N)NC(=O)[C@@H]2CCCN2C(=O)[C@@H](Cc2ccccc2)NC)n1
Prothrombin
  Ki: 4.5 nM
[3]
  Ki: 5.4 nM

## O=C(c1nc2ccccc2s1)[C@@H]1CCCN1C(=O)[C@@H]1CCCN1CCCc1ccccc1
Prolyl endopeptidase
  IC50: 4 nM

## COc1ccc(-c2csc(NC(=O)CCCCCCC(=O)c3ncco3)n2)cc1
[1]
  IC50: 30 nM

## O=C(CCCCCCNc1ccc2ccccc2c1)c1ncco1
[1]
  IC50: 430 nM

## CC(=O)NCC(=O)N[C@@H](CCCN=C(N)N)C(=O)c1nc2ccccc2s1
[2]
  Ki: 470 nM

## Cc1ccnc(-c2cnc(C(=O)CCCCCCc3ccccc3)o2)c1
[4]
  Selectivity ratio: 2000
[5]
  Ki: 0.6 nM

## O=C(CCCCCCC(=O)c1ncco1)Nc1cccc(-c2ccccc2)c1
[1]
  IC50: 60 nM

## CC(=O)N1CCC[C@H]1C(=O)N[C@@H](CCCN=C(N)N)C(=O)c1nc2ccccc2s1
[2]
  Ki: 19 nM
Prothrombin
  IC50: 14000 nM

## CC(=O)N[C@@H](CC(C)C)C(=O)N[C@@H](CCCN=C(N)N)C(=O)c1nc2ccccc2s1
[2]
  Ki: 41 nM

## CCCC(F)(F)C[C@H](NC(=O)N1CCOCC1)C(=O)N[C@@H](CC)C(=O)c1nc(C2CC2)no1
Cathepsin S
  Ki: < 100 nM

## O=C(CCCCCCCCc1ccccc1)c1nnc(-c2ccccn2)o1
[4]
  Selectivity ratio: 600

## O=C(c1nc2ccccc2s1)[C@@H]1CCCN1C(=O)[C@@H]1CCCN1OCc1ccccc1
Prolyl endopeptidase
  IC50: 5.6 nM

## O=C(c1nc2ccccc2o1)[C@@H]1CCCN1C(=O)[C@@H]1CCCN1CCCc1ccccc1
Prolyl endopeptidase
  IC50: 5.6 nM

## O=C(CCCCCCOc1ccc(-c2ccccc2)cc1)c1ncco1
[1]
  IC50: 1000 nM

## O=C(c1nccs1)[C@@H]1CCCN1C(=O)[C@@H]1CCCN1CCCc1ccccc1
Prolyl endopeptidase
  IC50: 5 nM

## O=C(c1cscn1)[C@@H]1CCCN1C(=O)[C@@H]1CCCN1CCCc1ccccc1
Prolyl endopeptidase
  IC50: 13 nM

## N=C(N)NCCC[C@H](NC(=O)[C@@H]1CCCN1C(=O)c1ccccc1)C(=O)c1nc2ccccc2s1
[2]
  Ki: 250 nM
[3]
  Ki: 160 nM

## O=C(CCCCCCOc1ccc(-c2ccccc2)cc1)c1nnn[nH]1
[1]
  IC50: 1000 nM

## O=C(CCCCCCOc1ccc(-c2ccccc2)cc1)c1nccs1
[1]
  IC50: > 50000 nM

## CC(NC(=O)[C@H](CC(=O)N(C)C)NC(=O)[C@@H](NC(=O)CC(C)(C)C)C(C)(C)C)C(=O)c1nc2ccccc2o1 (stereo partly drawn)
Prolyl endopeptidase
  IC50: 80 nM

## CN[C@H](Cc1ccccc1)C(=O)N1CCC[C@H]1C(=O)N[C@@H](CCCNC(=N)N)C(=O)c1nccn1C
[3]
  Ki: 5800 nM

## N[C@H]1CC[C@H]([C@H](NC(=O)[C@@H]2CC[C@H]3CN(S(=O)(=O)Cc4ccccc4)CC(=O)N32)C(=O)c2nccs2)CC1
Prothrombin
  Ki: 3.2 nM
Trypsin
  Ki: 8000 nM

## O=C(C1=NCCS1)[C@@H]1CCCN1C(=O)[C@@H]1CCCN1CCCc1ccccc1
Prolyl endopeptidase
  IC50: 3.8 nM

## N=C(N)N1CCC[C@@H](C[C@H](NC(=O)[C@@H]2CC[C@H]3CN(C(=O)CCc4ccccc4)CC(=O)N32)C(=O)c2nc3ccccc3s2)C1
Prothrombin
  IC50: < 1 nM
Trypsin
  IC50: 590 nM

## COC(=O)n1nnnc1C(=O)[C@@H](NC(=O)[C@@H]1CC[C@H]2CN(S(=O)(=O)Cc3ccccc3)CC(=O)N21)[C@H]1CC[C@H](N)CC1
Prothrombin
  Ki: 2600 nM
Trypsin
  Ki: > 400000 nM

## CN[C@H](Cc1ccccc1)C(=O)N1CCC[C@H]1C(=O)N[C@@H](CCCNC(=N)N)C(=O)c1nc2ccccc2n1C
[3]
  Ki: 290 nM

## CC[C@H](NC(=O)[C@H](CS(=O)(=O)Cc1ccccc1)OC(=O)N1CCOCC1)C(=O)c1nc2ccccc2o1
Cathepsin S
  Ki: < 10 nM

## Cn1ccnc1C(=O)CCCCCCOc1ccc(-c2ccccc2)cc1
[1]
  IC50: > 50000 nM

## CNC(=O)C(=O)CCCCCCOc1ccc(-c2ccccc2)cc1
[1]
  IC50: 110 nM
